Data: US5373009A, “Dibenzofuranyl esters of N-heterocyclic carboxylic acids” (priority 1994, dated 1994)

How the values were obtained:
[1] = target: T1, cholesterol ester hydrolase (CEH) (Bos taurus, UniProt P30122); assay: In vitro inhibition of cholesteryl ester formation by cholesterol esterase (CEH); type: biochemical; conditions: 37° C.; cholesterol and oleic acid; cholesterol esterase from bovine pancreas
T1 construct: purchased Sigma Company, St. Louis, Mo., U.S.A. C-1892; host or cells: bovine pancreas
Description: The ability of the compounds of this invention to inhibit the formation of cholesteryl esters and thereby interfere with and prevent assimilation of cholesterol into the lymphatic system and ultimately the blood stream was established by incubating the compounds at 37° C. with a mixture of cholesterol and oleic acid in the presence of buffered cholesterol esterase [(EC 3.1.1.13) Sigma Company, St. Louis, Mo., U.S.A., No. C-1892, from bovine pancreas] and measuring the amount of ester formed, according to the procedure of Field, J. of Lipid Research, 25, 389 (1984).

[2] = test system: absorption of 14C-cholesterol; assay: In vivo cholesterol absorption in normal rats (serum radioactivity after oral [4-14C] cholesterol); conditions: serum radioactivity at 6 hr, vs control
Description: The in vivo cholesterol absorption studies were conducted in normal rats by oral administration of the compound being tested in propylene glycol and olive oil followed by oral administration of [4-^14 C] cholesterol in propylene glycol and olive oil, otherwise following the procedure of Cayen et al., J. Lipid Res. 20, 162 (1979). The serum radioactivity was measured at six hours after dosing. The results of this study are reported in Table I as percent decrease compared to control.

CEH = conditions: prior art statement; cited from earlier work

T1 sequence (P30122 19-597): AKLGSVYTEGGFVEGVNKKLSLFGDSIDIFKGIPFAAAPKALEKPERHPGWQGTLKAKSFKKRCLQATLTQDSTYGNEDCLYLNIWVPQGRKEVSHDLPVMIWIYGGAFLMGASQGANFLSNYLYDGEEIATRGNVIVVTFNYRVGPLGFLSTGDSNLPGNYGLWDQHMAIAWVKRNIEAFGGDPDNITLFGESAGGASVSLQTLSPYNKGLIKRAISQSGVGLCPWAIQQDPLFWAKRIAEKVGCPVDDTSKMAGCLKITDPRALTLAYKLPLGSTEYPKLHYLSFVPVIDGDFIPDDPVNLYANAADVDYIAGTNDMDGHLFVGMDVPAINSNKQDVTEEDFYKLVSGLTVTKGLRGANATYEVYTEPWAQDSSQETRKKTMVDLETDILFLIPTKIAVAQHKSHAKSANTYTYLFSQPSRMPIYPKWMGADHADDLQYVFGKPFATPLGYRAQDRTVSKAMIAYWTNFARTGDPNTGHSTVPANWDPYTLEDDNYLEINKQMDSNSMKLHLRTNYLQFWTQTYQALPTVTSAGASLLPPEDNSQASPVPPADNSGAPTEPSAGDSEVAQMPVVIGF

Row | Structure (SMILES) | IC50 [1] [µM] | Effect on Absorption of ^14 C-chol-6 hr-normal rat, % Decrease ([2]; 3 mg/kg) [%] | CEH inhibitor (in words) (CEH) | Effect on Absorption of ^14 C-chol-6 hr-normal rat, % Decrease ([2]; 10 mg/kg) [%]
1 | O=C(Oc1ccc2oc3ccccc3c2c1)N1CCC2(CCCC2)CC1 [Example 4, 8-Azaspiro[4,5]decane-8-carboxylic acid 2-dibenzofuranyl ester] | 15 | 55 |  | 
2 | CNC(=O)OC1CCN(C(=O)Oc2ccc(Oc3ccccc3)cc2)CC1 [4-[[methylamino)carbonyl]oxy]-1-piperidinecarboxylic acid 4-phenoxyphenyl ester] |  |  | CEH inhibitor | 
3 | O=C(Oc1ccc2oc3ccccc3c2c1)N1CCSCC1 [Example 2, 4-Thiomornholinecarboxylic acid 2-dibenzofuranyl ester] | 0.51 |  |  | 16
4 | CC1(C)CCN(C(=O)Oc2ccc3oc4ccccc4c3c2)CC1 [Example 3, 4,4-Dimethyl-1-piperidinecarboxylic acid 2-dibenzofuranyl ester] | 6.5 | 44 |  | 
